# Measured values: ChEMBL document CHEMBL4483862, “Open-source discovery of chemical leads for next-generation chemoprotective antimalarials” (2018)
# System: Plasmodium berghei
# Test: Luciferase/luciferin-expressing antifolate-resistant parasites were used to infect a culture of HepG2 cells that were pre-incubated with compounds. Infected hepatocytes emit light due to the luciferase reaction. Assay results are presented as the percent inhibition of light emission compared to control. […]
# Assay type: functional
# Settings: sporozoite; for IC90: read-out: LUCIFERASE INFECTION ASSAY - IC90
smiles,measurement,setting,value
CC[n+]1ccccc1C=Cc1ccc(N(C)C)cc1,IC50,"HEPG2TOX_HILL_SLOPE 3.25, HEPG2TOX_R_SQUARED 0.92, PBLUC_HILL_SLOPE 1.1, PBLUC_R_SQUARED 0.874, read-out: LUCIFERASE INFECTION ASSAY - IC50",0.835 µM
same,IC90,,6.2 µM
Cc1sc2nc(CSc3ccc([N+](=O)[O-])c(C(F)(F)F)c3)nc(O)c2c1C,IC50,"HEPG2TOX_HILL_SLOPE 3.24, HEPG2TOX_R_SQUARED 0.988, PBLUC_HILL_SLOPE 5.99, PBLUC_R_SQUARED 0.334, read-out: LUCIFERASE INFECTION ASSAY - IC50",5.99 µM
same,IC90,,8.65 µM
Oc1cccc(-c2cnc3ccc(-c4cccc5ncccc45)nn23)c1,IC50,"HEPG2TOX_HILL_SLOPE 3.26, HEPG2TOX_R_SQUARED 0.941, PBLUC_HILL_SLOPE 1.24, PBLUC_R_SQUARED 0.528, read-out: LUCIFERASE INFECTION ASSAY - IC50",1.84 µM
same,IC90,,> 10 µM
COc1ccc(OC)c(CCNc2nc3cnc(-c4cccs4)cc3n2C)c1,IC50,"HEPG2TOX_HILL_SLOPE 3.25, HEPG2TOX_R_SQUARED 0.886, PBLUC_HILL_SLOPE 11.1, PBLUC_R_SQUARED 0.592, read-out: LUCIFERASE INFECTION ASSAY - IC50",3.16 µM
same,IC90,,3.85 µM
CCCn1c(C)cc(C(=O)CN(C)S(=O)(=O)c2ccc(Cl)cc2)c1C,IC50,"HEPG2TOX_HILL_SLOPE 3.32, HEPG2TOX_R_SQUARED 0.751, PBLUC_HILL_SLOPE 15.5, PBLUC_R_SQUARED 0.301, read-out: LUCIFERASE INFECTION ASSAY - IC50",9.26 µM
same,IC90,,> 10 µM
Cc1cc(C)c(-c2csc(NC(=O)C3CC4CCCC(C3)C4=O)n2)c(C)c1 (configuration not stated),IC50,"HEPG2TOX_HILL_SLOPE 3.24, HEPG2TOX_R_SQUARED 0.936, PBLUC_HILL_SLOPE 1.48, PBLUC_R_SQUARED 0.583, read-out: LUCIFERASE INFECTION ASSAY - IC50",2.93 µM
same,IC90,,> 10 µM
Fc1ccc(Oc2ccc(CNc3ncnc4nc[nH]c34)cn2)cc1,IC50,"HEPG2TOX_HILL_SLOPE 3.2, HEPG2TOX_R_SQUARED 0.895, PBLUC_HILL_SLOPE 3.02, PBLUC_R_SQUARED 0.0659, read-out: LUCIFERASE INFECTION ASSAY - IC50",5.84 µM
same,IC90,,> 10 µM
CC(C)Oc1cccc(Nc2ncc(C(=O)c3cccc(-c4ccncc4)c3)[nH]2)c1,IC50,"HEPG2TOX_HILL_SLOPE 3.28, HEPG2TOX_R_SQUARED 0.825, PBLUC_HILL_SLOPE 4.08, PBLUC_R_SQUARED 0.607, read-out: LUCIFERASE INFECTION ASSAY - IC50",2.27 µM
same,IC90,,3.9 µM
O=C(Nc1cccc(Cl)c1)C1=COC2=NC(=O)N(Cc3cccc(Cl)c3)CCN12,IC50,"HEPG2TOX_HILL_SLOPE 3.25, HEPG2TOX_R_SQUARED 0.784, PBLUC_HILL_SLOPE 3.78, PBLUC_R_SQUARED 0.178, read-out: LUCIFERASE INFECTION ASSAY - IC50",6.88 µM
same,IC90,,> 10 µM
CCCCCCCCCCOCC[N+]1(C)CCOCC1,IC50,"HEPG2TOX_HILL_SLOPE 3.29, HEPG2TOX_R_SQUARED 0.591, PBLUC_HILL_SLOPE 1.92, PBLUC_R_SQUARED 0.78, read-out: LUCIFERASE INFECTION ASSAY - IC50",2.38 µM
same,IC90,,7.47 µM
Cc1ccccc1OCCN(C)C(=O)NCCc1cccs1,IC50,"HEPG2TOX_HILL_SLOPE 3.22, HEPG2TOX_R_SQUARED 0.951, PBLUC_HILL_SLOPE 11.1, PBLUC_R_SQUARED 0.17, read-out: LUCIFERASE INFECTION ASSAY - IC50",3.35 µM
same,IC90,,4.09 µM
O=C(Nc1nc2ccccn2c1C(=O)NC1CCCC1)c1ccccc1,IC50,"HEPG2TOX_HILL_SLOPE 3.22, HEPG2TOX_R_SQUARED 0.898, PBLUC_HILL_SLOPE 4.41, PBLUC_R_SQUARED 0.561, read-out: LUCIFERASE INFECTION ASSAY - IC50",4.56 µM
same,IC90,,7.5 µM
Cn1ncc2c(N3CCN(CC(=O)Nc4nc(-c5c[nH]c6ccccc56)cs4)CC3)ncnc21,IC50,"HEPG2TOX_HILL_SLOPE 3.32, HEPG2TOX_R_SQUARED 0.453, PBLUC_HILL_SLOPE 2.65, 8.86, PBLUC_R_SQUARED 0.123, 0.280, read-out: LUCIFERASE INFECTION ASSAY - IC50",2.62 µM
same,IC90,,4.22 µM
COc1ccc(NCC2(c3ccnc(-c4ccccc4Cl)c3)CC2)cc1OC,IC50,"HEPG2TOX_HILL_SLOPE 3.27, HEPG2TOX_R_SQUARED 0.816, PBLUC_HILL_SLOPE 4.33, PBLUC_R_SQUARED 0.443, read-out: LUCIFERASE INFECTION ASSAY - IC50",5.49 µM
same,IC90,,9.12 µM
c1ccc(-c2csc3nc(CN4CCCCC4)nc(Sc4nnc(-c5cccnc5)o4)c23)cc1,IC50,"HEPG2TOX_HILL_SLOPE 3.21, 5.75, HEPG2TOX_R_SQUARED 0.957, 0.718, PBLUC_HILL_SLOPE 33.6, 11.3, PBLUC_R_SQUARED 0.628, 0.512, read-out: LUCIFERASE INFECTION ASSAY - IC50",3.23 µM
same,IC90,,3.67 µM
O=C(CCn1cnc2ccccc2c1=O)Nc1ccc(Br)cn1,IC50,"HEPG2TOX_HILL_SLOPE 3.2, HEPG2TOX_R_SQUARED 0.878, PBLUC_HILL_SLOPE 4.82, PBLUC_R_SQUARED 0.722, read-out: LUCIFERASE INFECTION ASSAY - IC50",3.02 µM
same,IC90,,4.76 µM
COc1cccc(CN2CCN3C=C(C(=O)Nc4ccc(OCc5ccccc5)cc4)OC3=NC2=O)c1,IC50,"HEPG2TOX_HILL_SLOPE 3.22, HEPG2TOX_R_SQUARED 0.229, read-out: LUCIFERASE INFECTION ASSAY - IC50",> 10 µM
same,IC90,,> 10 µM
CC(C)(C)c1ccc(-c2ccc(OCCCc3ccccn3)nc2)cc1,IC50,"HEPG2TOX_HILL_SLOPE 3.23, HEPG2TOX_R_SQUARED 0.98, PBLUC_HILL_SLOPE 2.82, PBLUC_R_SQUARED 0.72, read-out: LUCIFERASE INFECTION ASSAY - IC50",6.22 µM
same,IC90,,> 9.52 µM
CCS(=O)(=O)c1ncc(Cl)c(C(=O)Nc2ccc(C(=O)OC)cc2)n1,IC50,"HEPG2TOX_HILL_SLOPE 3.26, HEPG2TOX_R_SQUARED 0.643, PBLUC_HILL_SLOPE 9.13, PBLUC_R_SQUARED 0.474, read-out: LUCIFERASE INFECTION ASSAY - IC50",3.67 µM
same,IC90,,4.66 µM
O=c1[nH]ncc(NCCCc2ccccc2)c1Cl,IC50,"HEPG2TOX_HILL_SLOPE 3.21, 1.90, HEPG2TOX_R_SQUARED 0.492, 0.980, PBLUC_HILL_SLOPE 2.78, PBLUC_R_SQUARED 0.0147, read-out: LUCIFERASE INFECTION ASSAY - IC50",8.32 µM
same,IC90,,> 10 µM
CCCn1c(NC(=O)C2CCN(S(=O)(=O)c3cccc(Cl)c3Cl)CC2)nc2ccccc21,IC50,"HEPG2TOX_HILL_SLOPE 3.25, HEPG2TOX_R_SQUARED 0.759, PBLUC_HILL_SLOPE 100, PBLUC_R_SQUARED 0.016, read-out: LUCIFERASE INFECTION ASSAY - IC50",6.02 µM
same,IC90,,6.16 µM
O=C(NNC(=O)c1cc2cc(Cl)ccc2[nH]1)c1ccc(S(=O)(=O)N2CCCC2)cc1,IC50,"HEPG2TOX_HILL_SLOPE 3.29, HEPG2TOX_R_SQUARED 0.977, PBLUC_HILL_SLOPE 10.3, 16.0, PBLUC_R_SQUARED 0.127, 0.622, read-out: LUCIFERASE INFECTION ASSAY - IC50",8.54 µM
same,IC90,,9.83 µM
CCOC(=O)C1=C(COC(=O)c2oc3ccc(OC)cc3c2C)NC(=O)NC1,IC50,"HEPG2TOX_HILL_SLOPE 3.23, HEPG2TOX_R_SQUARED 0.736, PBLUC_HILL_SLOPE 1.66, PBLUC_R_SQUARED 0.334, read-out: LUCIFERASE INFECTION ASSAY - IC50",> 10 µM
same,IC90,,> 10 µM
C1=C(c2ccccc2)CCN(Cc2cccc3cccnc23)C1,IC50,"HEPG2TOX_HILL_SLOPE 3.29, HEPG2TOX_R_SQUARED 0.953, PBLUC_HILL_SLOPE 4.04, PBLUC_R_SQUARED 0.237, read-out: LUCIFERASE INFECTION ASSAY - IC50",5.62 µM
same,IC90,,9.68 µM
Nc1ccc(-c2cnc3ccc(NCc4ccc(F)cc4)nn23)cc1,IC50,"HEPG2TOX_HILL_SLOPE 3.34, HEPG2TOX_R_SQUARED 0.665, PBLUC_HILL_SLOPE 6.16, PBLUC_R_SQUARED 0.867, read-out: LUCIFERASE INFECTION ASSAY - IC50",0.26 µM
same,IC90,,0.372 µM
COc1ccc(OCCN2CCN(c3ccnc4cc(Cl)ccc34)CC2)cc1,IC50,"HEPG2TOX_HILL_SLOPE 3.33, HEPG2TOX_R_SQUARED 0.981, PBLUC_HILL_SLOPE 2.57, PBLUC_R_SQUARED 0.319, read-out: LUCIFERASE INFECTION ASSAY - IC50",5.62 µM
same,IC90,,> 10 µM
COc1c(Cl)cc(C(=O)Nc2nonc2-c2ccc(F)cc2)cc1Cl,IC50,"HEPG2TOX_HILL_SLOPE 3.32, HEPG2TOX_R_SQUARED 0.957, PBLUC_HILL_SLOPE 18.3, PBLUC_R_SQUARED 0.283, read-out: LUCIFERASE INFECTION ASSAY - IC50",2.49 µM
same,IC90,,2.81 µM
Cc1noc(C)c1CSc1ccccc1C(=O)NNC(=O)c1ccc2ccccc2n1,IC50,"HEPG2TOX_HILL_SLOPE 3.33, HEPG2TOX_R_SQUARED 0.906, PBLUC_HILL_SLOPE 141, PBLUC_R_SQUARED 0.0106, read-out: LUCIFERASE INFECTION ASSAY - IC50",6.66 µM
same,IC90,,6.77 µM
CN(C)CCNc1nc(-c2ccco2)c2c(c1C#N)CCCC2,IC50,"HEPG2TOX_HILL_SLOPE 3.21, HEPG2TOX_R_SQUARED 0.873, PBLUC_HILL_SLOPE 1.18, PBLUC_R_SQUARED 0.659, read-out: LUCIFERASE INFECTION ASSAY - IC50",3.31 µM
same,IC90,,> 10.6 µM
O=C(c1ccc(OCc2cccnc2)cc1)N1CCc2ccccc21,IC50,"HEPG2TOX_HILL_SLOPE 3.32, HEPG2TOX_R_SQUARED 0.856, read-out: LUCIFERASE INFECTION ASSAY - IC50",> 10 µM
same,IC90,,> 10 µM
COc1ccc(-c2ccnc3n[nH]c(-c4ccncc4)c23)cc1,IC50,"HEPG2TOX_HILL_SLOPE 3.34, HEPG2TOX_R_SQUARED 0.878, PBLUC_HILL_SLOPE 1.93, PBLUC_R_SQUARED 0.439, read-out: LUCIFERASE INFECTION ASSAY - IC50",3.22 µM
same,IC90,,> 10 µM
